# Results taken from patent US10695337B2, “Piperidin-4-yl azetidine derivatives as JAK1 inhibitors” (Incyte Corporation, priority 2010, dated 2020).
# Target: human JAK1 (a.a. 837-1142)
# Assay: In vitro JAK kinase assay (HTRF, phosphorylation of a biotinylated peptide), JAK1
# Assay type: biochemical
# Conditions: measured at 1 mM ATP; JAK2 IC50 / JAK1 IC50
# Method: Compounds herein were tested for inhibitory activity of JAK targets according to the following in vitro assay described in Park et al., Analytical Biochemistry 1999, 269, 94-104. The catalytic domains of human JAK1 (a.a. 837-1142), Jak2 (a.a. 828-1132) and Jak3 (a.a. 781-1124) with an N-terminal His tag were expressed using baculovirus in insect cells and purified. The catalytic activity of JAK1, JAK2 or JAK3 was assayed by measuring the phosphorylation of a biotinylated peptide. The phosphorylated peptide was detected by homogenous time resolved fluorescence (HTRF). […] Reactions were carried out at room temperature for 1 hr and then stopped with 20 μL 45 mM EDTA, 300 nM SA-APC, 6 nM Eu-Py20 in assay buffer (Perkin Elmer, Boston, Mass.). Binding to the Europium labeled antibody took place for 40 minutes and HTRF signal was measured on a Fusion plate reader (Perkin Elmer, Boston, Mass.).
row,SMILES,IC50 Ratio JAK2/JAK1
1,"COc1ccc(C(=O)N2CCC(N3CC(CC#N)(n4cc(-c5ncnc6[nH]ccc56)cn4)C3)CC2)cc1C#N [Example 55, 5-[(4-{3-(cyanomethyl)-3-[4-(7H-pyrrolo[2,3-d]pyrimidin-4-yl)-1H-pyrazol-1-yl]azetidin-1-yl}piperidin-1-yl)carbonyl]-2-methoxybenzonitrile]",7.5
2,"N#CCC1(n2cc(-c3ncnc4[nH]ccc34)cn2)CN(C2CCN(C(=O)c3c(F)c(F)cc(F)c3F)CC2)C1 [Example 56, {3-[4-(7H-pyrrolo[2,3-d]pyrimidin-4-yl)-1H-pyrazol-1-yl]-1-[1-(2,3,5,6-tetrafluorobenzoyl)piperidin-4-yl]azetidin-3-yl}acetonitrile]",8.8
3,"N#CCC1(n2cc(-c3ncnc4[nH]ccc34)cn2)CN(C2CCN(C(=O)c3ccnc(C(F)(F)F)c3)CC2)C1 [Example 57, (3-[4-(7H-pyrrolo[2,3-d]pyrimidin-4-yl)-1H-pyrazol-1-yl]-1-{1-[2-(trifluoromethyl)isonicotinoyl]piperidin-4-yl}azetidin-3-yl)acetonitrile]",3.3
4,"N#CCC1(n2cc(-c3ncnc4[nH]ccc34)cn2)CN(C2CCN(C(=O)c3ccc(F)c(O)c3)CC2)C1 [Example 58, {1-[1-(4-fluoro-3-hydroxybenzoyl)piperidin-4-yl]-3-[4-(7H-pyrrolo[2,3-d]pyrimidin-4-yl)-1H-pyrazol-1-yl]azetidin-3-yl} acetonitrile]",5.0
5,"CN(C)c1ccc(C(=O)N2CCC(N3CC(CC#N)(n4cc(-c5ncnc6[nH]ccc56)cn4)C3)CC2)cc1C#N [Example 59, 5-[(4-{3-(cyanomethyl)-3-[4-(7H-pyrrolo[2,3-d]pyrimidin-4-yl)-1H-pyrazol-1-yl]azetidin-1-yl}piperidin-1yl)carbonyl]-2-(dimethylamino)benzonitrile]",4.6
6,"CN(C)c1c(F)c(F)c(C(=O)N2CCC(N3CC(CC#N)(n4cc(-c5ncnc6[nH]ccc56)cn4)C3)CC2)c(F)c1F [Example 60, {1-{1-[4-(dimethylamino)-2,3,5,6-tetrafluorobenzoyl]piperidin-4-yl}-3-[4-(7H-pyrrolo[2,3-d]pyrimidin-4-yl)-1H-pyrazol-1-yl]azetidin-3-yl}acetonitrile]",1.8
7,"N#CCC1(n2cc(-c3ncnc4[nH]ccc34)cn2)CN(C2CCN(C(=O)c3ccccc3F)CC2)C1 [Example 67, {1-[1-(2-fluorobenzoyl)piperidin-4-yl]-3-[4-(7H-pyrrolo[2,3-d]pyrimidin-4-yl)-1H-pyrazol-1-yl]azetidin-3-yl}acetonitrile]",4.7
8,"N#CCC1(n2cc(-c3ncnc4[nH]ccc34)cn2)CN(C2CCN(C(=O)c3sc(C(F)(F)F)cc3O)CC2)C1 [Example 71, {1-{1-[3-hydroxy-5-(trifluoromethyl)-2-thienylcarbonyl]piperidin-4-yl}-3-[4-(7H-pyrrolo[2,3-d]pyrimidin-4-yl)-1H-pyrazol-1-yl]azetidin-3-yl}acetonitrile]",4.4
9,"COc1cscc1C(=O)N1CCC(N2CC(CC#N)(n3cc(-c4ncnc5[nH]ccc45)cn3)C2)CC1 [Example 72, {1-{1-[(4-methoxy-3-thienyl)carbonyl]piperidin-4-yl}-3-[4-(7H-pyrrolo[2,3-d]pyrimidin-4-yl)-1H-pyrazol-1-yl]azetidin-3-yl} acetonitrile]",6.6
10,"Cc1cc(C(=O)N2CCC(N3CC(CC#N)(n4cc(-c5ncnc6[nH]ccc56)cn4)C3)CC2)cs1 [Example 73, {1-{1-[(5-methyl-3-thienyl)carbonyl]piperidin-4-yl}-3-[4-(7H-pyrrolo[2,3-d]pyrimidin-4-yl)-1H-pyrazol-1-yl]azetidin-3-yl} acetonitrile]",4.2
11,"N#CCC1(n2cc(-c3ncnc4[nH]ccc34)cn2)CN(C2CCN(C(=O)c3ccsc3Br)CC2)C1 [Example 75, {1-{1-[(2-bromo-3-thienyl)carbonyl]piperidin-4-yl}-3-[4-(7H-pyrrolo[2,3-d]pyrimidin-4-yl)-1H-pyrazol-1-yl]azetidin-3-yl}acetonitrile]",3.4
12,"N#CCC1(n2cc(-c3ncnc4[nH]ccc34)cn2)CN(C2CCN(C(=O)c3ccc(C(F)(F)F)cc3F)CC2)C1 [Example 82, {1-{1-[2-fluoro-4-(trifluoromethyl)benzoyl]piperidin-4-yl}-3-[4-(7H-pyrrolo[2,3-d]pyrimidin-4-yl)-1H-pyrazol-1-yl]azetidin-3-yl} acetonitrile]",5.3
13,"N#CCC1(n2cc(-c3ncnc4[nH]ccc34)cn2)CN(C2CCN(C(=O)c3c(F)cc(C#N)cc3F)CC2)C1 [Example 83, 4-[(4-{3-(cyanomethyl)-3-[4-(7H-pyrrolo[2,3-d]pyrimidin-4-yl)-1H-pyrazol-1-yl]azetidin-1-yl}piperidin-1-yl)carbonyl]-3,5-difluorobenzonitrile]",5.8
14,"N#CCC1(n2cc(-c3ncnc4[nH]ccc34)cn2)CN(C2CCN(C(=O)c3cccc4ccccc34)CC2)C1 [Example 87, {1-[1-(1-naphthoyl)piperidin-4-yl]-3-[4-(7H-pyrrolo[2,3-d]pyrimidin-4-yl)-1H-pyrazol-1-yl]azetidin-3-yl}acetonitrile]",0.3
15,"N#CCC1(n2cc(-c3ncnc4[nH]ccc34)cn2)CN(C2CCN(C(=O)c3cc4ccccc4s3)CC2)C1 [Example 90, {1-[1-(1-benzothien-2-ylcarbonyl)piperidin-4-yl]-3-[4-(7H-pyrrolo[2,3-d]pyrimidin-4-yl)-1H-pyrazol-1-yl]azetidin-3-yl}acetonitrile]",1.5
16,"N#CCC1(n2cc(-c3ncnc4[nH]ccc34)cn2)CN(C2CCN(C(=O)c3sc4cc(F)ccc4c3Cl)CC2)C1 [Example 91, {1-{1-[(3-chloro-6-fluoro-1-benzothien-2-yl)carbonyl]piperidin-4-yl}-3-[4-(7H-pyrrolo[2,3-d]pyrimidin-4-yl)-1H-pyrazol-1-yl]azetidin-3-yl}acetonitrile]",1.7

# Further lines, results first:
row,IC50 Ratio JAK2/JAK1,SMILES
1,4.2,"N#CCC1(n2cc(-c3ncnc4[nH]ccc34)cn2)CN(C2CCN(C(=O)c3c(F)cncc3F)CC2)C1 [Example 61, {1-[1-(3,5-difluoroisonicotinoyl)piperidin-4-yl]-3-[4-(7H-pyrrolo[2,3-d]pyrimidin-4-yl)-1H-pyrazol-1-yl]azetidin-3-yl}acetonitrile]"
2,3.8,"COc1c(C(=O)N2CCC(N3CC(CC#N)(n4cc(-c5ncnc6[nH]ccc56)cn4)C3)CC2)csc1Cl [Example 74, {1-{1-[(5-chloro-4-methoxy-3-thienyl)carbonyl]piperidin-4-yl}-3-[4-(7H-pyrrolo[2,3-d]pyrimidin-4-yl)-1H-pyrazol-1-yl]azetidin-3-yl} acetonitrile]"
3,5.5,"N#CCC1(n2cc(-c3ncnc4[nH]ccc34)cn2)CN(C2CCN(C(=O)c3sccc3Cl)CC2)C1 [Example 76, {1-{1-[(3-chloro-2-thienyl)carbonyl]piperidin-4-yl}-3-[4-(7H-pyrrolo[2,3-d]pyrimidin-4-yl)-1H-pyrazol-1-yl]azctidin-3-yl}acetonitrile]"
4,5.5,"N#CCC1(n2cc(-c3ncnc4[nH]ccc34)cn2)CN(C2CCN(C(=O)c3ccc(Cl)s3)CC2)C1 [Example 77, {1-{1-[(5-chloro-2-thienyl)carbonyl]piperidin-4-yl}-3-[4-(7H-pyrrolo[2,3-d]pyrimidin-4-yl)-1H-pyrazol-1-yl]azetidin-3-yl}acetonitrile]"
5,5.4,"Cc1ccsc1C(=O)N1CCC(N2CC(CC#N)(n3cc(-c4ncnc5[nH]ccc45)cn3)C2)CC1 [Example 78, {1-{1-[(3-methyl-2-thienyl)carbonyl]piperidin-4-yl}-3-[4-(7H-pyrrolo[2,3-d]pyrimidin-4-yl)-1H-pyrazol-1-yl]azetidin-3-yl}acetonitrile]"
6,4.1,"Cc1ccc(C(=O)N2CCC(N3CC(CC#N)(n4cc(-c5ncnc6[nH]ccc56)cn4)C3)CC2)s1 [Example 80, {1-{1-[(5-methyl-2-thienyl)carbonyl]piperidin-4-yl}-3-[4-(7H-pyrrolo[2,3-d]pyrimidin-4-yl)-1H-pyrazol-1-yl]azetidin-3-yl}acetonitrile]"
7,4.2,"COc1ccsc1C(=O)N1CCC(N2CC(CC#N)(n3cc(-c4ncnc5[nH]ccc45)cn3)C2)CC1 [Example 81, {1-{1-[(3-methoxy-2-thienyl)carbonyl]piperidin-4-yl}-3-[4-(7H-pyrrolo[2,3-d]pyrimidin-4-yl)-1H-pyrazol-1-yl]azetidin-3-yl}acetonitrile]"
8,6.5,"N#CCC1(n2cc(-c3ncnc4[nH]ccc34)cn2)CN(C2CCN(C(=O)c3ccc(O)c(Cl)c3)CC2)C1 [Example 84, {1-[1-(3-chloro-4-hydroxybenzoyl)piperidin-4-yl]-3-[4-(7H-pyrrolo[2,3-d]pyrimidin-4-yl)-1H-pyrazol-1-yl]azetidin-3-yl}acetonitrile]"
9,0.9,"N#CCC1(n2cc(-c3ncnc4[nH]ccc34)cn2)CN(C2CCN(C(=O)c3cnc4ccccc4c3)CC2)C1 [Example 88, {3-[4-(7H-pyrrolo[2,3-d]pyrimidin-4-yl)-1H-pyrazol-1-yl]-1-[1-(quinolin-3-ylcarbonyl)piperidin-4-yl]azetidin-3-yl}acetonitrile]"
10,2.6,"N#CCC1(n2cc(-c3ncnc4[nH]ccc34)cn2)CN(C2CCN(C(=O)c3ccc4ncccc4c3)CC2)C1 [Example 89, {3-[4-(7H-pyrrolo[2,3-d]pyrimidin-4-yl)-1H-pyrazol-1-yl]-1-[1-(quinolin-6-ylcarbonyl)piperidin-4-yl]azetidin-3-yl}acetonitrile]"
